Test results from patent US20100190968A1, “OLEANANE TRITERPENE SAPONIN COMPOUNDS WHICH ARE EFFECTIVE ON TREATMENT OF DEMENTIA AND MILD COGNITIVE IMPAIRMENT (MCI) AND IMPROVEMENT OF COGNITIVE FUNCTION” (priority 2006, published 2010).

System: mice
Assay: Passive avoidance test (scopolamine-induced memory decline)
Format: in vivo, mouse
Conditions: scopolamine 1 mg/kg; for Retention time: measured up to 300 seconds
Procedure: Passive avoidance test was performed to identify the memory improvement effect of the above 8 oleanolic acid saponin or hederagenin saponin substances in the body. Also, oleanolic acid and hederagenin, aglycons of the saponin compounds, were included in the test. A shuttle box measuring 50 cm×15 cm×40 cm was used. The box was divided into two compartments by a guillotine door. One compartment was brightly illuminated and the other was covered by black cloth. A mouse was placed in the illuminated compartment. Then, when the guillotine door was open, the mouse moved into the dark compartment within 20 seconds because it prefers darkness. The guillotine door was closed automatically as soon as the mouse entered the dark compartment. In this way, the latency time, or the time that elapsed until a mouse left the illuminated compartment and entered the dark compartment, was determined. On the first day, this training trial was performed until all the mice entered the dark compartment within 20 seconds. On the following day, the trained mice were placed in the illuminated compartment, one at a time, and were allowed to move into the dark compartment. When the mice entered the dark compartment, a foot-shock (0.8 mA, 3 seconds) was delivered through the electronic grid equipped on the floor of the dark compartment. 24 hours after this acquisition trial, the mice were placed in the illuminated compartment and were allowed to move into the dark compartment. Then, normal mice hesitated to move into the dark compartment remembering the shock of the day before. The time elapsed until the mice entered the dark compartment was measured up to 300 seconds. Retention time was measured to evaluate the memory improvement effect. Neither scopolamine nor the drug was administered to the control group. Scopolamine (1 mg/kg), which is known to decline memory function by inhibiting the transfer of neurotransmitters, was administered. An hour later, saponin (30 mg/kg) and aglycon (30 mg/kg), […] (donepezil, 1 mg/kg, positive control) and water (negative control) were administered.

[1] = saponin or aglycon 30 mg/kg 1 hour later
[2] = saponin or aglycon 30 mg/kg administered once orally 1 hour later, 24 hours after acquisition trial

CC1(C)CC[C@]2(C(=O)O)CC[C@]3(C)C(=CC[C@@H]4[C@@]5(C)CC[C@H](O)[C@@](C)(CO)[C@@H]5CC[C@]43C)[C@@H]2C1 [Hederagenin, hederagenin, reference compound]
times longer retention time than the negative control group (water) [1]: 2.3 times | Retention time [2]: 142.8 ± 32.6 s

CC1OC(OC2C(OCC3OC(OC(=O)C45CCC(C)(C)CC4C4=CCC6C7(C)CCC(OC8OCC(O)C(O)C8OC8OC(C)C(O)C(O)C8O)C(C)(CO)C7CCC6(C)C4(C)CC5)C(O)C(O)C3O)OCC(O)C2O)C(O)C(O)C1O [Loniceroside B, 3-O-α-L-Rhamnopyranosyl(1→2)-α-L-arabinopyranosylhederagenin-28-O-α-L-rhamnopyranosyl(1→2)-β-D-xylopyranosyl(1→6)-β-D-glucopyranosyl ester]
Retention time [2]: 169.7 ± 25.4 s

3-O-β-D-Xylopyranosyl(1→2)-β-D-galactopyranosyl(1→3)-β-D-glucolopyranosyloleanolic acid [Elatoside A]
Retention time [2]: 166.0 ± 24.8 s

3-O-β-D-Xylopyranosyl(1→2)-β-D-galactopyranosyl(1→3)-β-D-glucolopyranosyloleanolic acid-28-O-β-D-glucopyranosyl ester [Elatoside C]
Retention time [2]: 160.1 ± 15.6 s

CC1OC(OC2C(CO)OC(OCC3OC(OC(=O)C45CCC(C)(C)CC4C4=CCC6C7(C)CCC(OC8OCC(OC9OC(CO)C(O)C(O)C9OC9OC(C)C(O)C(O)C9O)C(O)C8O)C(C)(C)C7CCC6(C)C4(C)CC5)C(O)C(O)C3O)C(O)C2O)C(O)C(O)C1O [Hederacolchiside E, 3-O-α-L-Rhamnopyranosyl(1→2)-β-D-glucopyranosyl(1→4)-α-L-arabinopyranosyloleanolic acid-28-O-α-L-rhamnopyranosyl(1→4)-β-D-glucopyranosyl(1→6)-β-D-glucopyranosyl ester]
Retention time [2]: 155.7 ± 31.2 s

C[C@@H]1O[C@@H](O[C@H]2[C@H](O[C@H]3CC[C@]4(C)[C@H]5CC=C6[C@@H]7CC(C)(C)CC[C@]7(C(=O)O[C@@H]7O[C@H](CO[C@@H]8O[C@H](CO)[C@@H](O[C@@H]9O[C@@H](C)[C@H](O)[C@@H](O)[C@H]9O)[C@H](O)[C@H]8O)[C@@H](O)[C@H](O)[C@H]7O)CC[C@@]6(C)[C@]5(C)CC[C@H]4C3(C)C)OC[C@H](O)[C@@H]2O)[C@H](O)[C@H](O)[C@H]1O [Hederasaponin B, 3-O-α-L-Rhamnopyranosyl(1→2)-α-L-arabinopyranosyloleanolic acid-28-O-α-L-rhamnopyranosyl(1→4)-β-D-glucopyranosyl(1→6)-β-D-glucopyranosyl ester]
Retention time [2]: 172.3 ± 29.1 s

C[C@@H]1O[C@@H](O[C@H]2[C@H](O[C@H]3CC[C@]4(C)[C@H]5CC=C6[C@@H]7CC(C)(C)CC[C@]7(C(=O)O)CC[C@@]6(C)[C@]5(C)CC[C@H]4C3(C)C)OC[C@H](O)[C@@H]2O)[C@H](O)[C@H](O)[C@H]1O [Eleutheroside K, 3-O-α-L-Rhamnopyranosyl(1→2)-α-L-arabinopyranosyloleanolic acid]
Retention time [2]: 182.6 ± 15.9 s

C[C@@H]1O[C@@H](O[C@H]2[C@H](OC[C@H]3O[C@@H](OC(=O)[C@]45CCC(C)(C)C[C@H]4C4=CC[C@@H]6[C@@]7(C)CC[C@H](O[C@@H]8OC[C@H](O)[C@H](O)[C@H]8O)[C@@](C)(CO)[C@@H]7CC[C@@]6(C)[C@]4(C)CC5)[C@H](O)[C@@H](O)[C@@H]3O)OC[C@@H](O)[C@@H]2O)[C@H](O)[C@H](O)[C@H]1O [Loniceroside A, 3-O-α-L-Arabinopyranosylhederagenin-28-O-α-L-rhamnopyranosyl(1→2)-β-D-xylopyranosyl(1→6)-β-D-glucopyranosyl ester]
Retention time [2]: 175.3 ± 21.1 s

CC1(C)CC[C@]2(C(=O)O)CC[C@]3(C)C(=CC[C@@H]4[C@@]5(C)CC[C@H](O)C(C)(C)[C@@H]5CC[C@]43C)[C@@H]2C1 [Oleanolic acid, oleanolic acid, reference compound]
times longer retention time than the negative control group (water) [1]: 2.4 times | Retention time [2]: 149.4 ± 19.7 s

COc1cc2c(cc1OC)C(=O)C(CC1CCN(Cc3ccccc3)CC1)C2 (centres unmarked) [Aricept, donepezil, reference compound]
times longer retention time than the negative control group (water) (Aricept 1 mg/kg orally 1 hour later): 1.6 times | Retention time (Aricept (donepezil) 1 mg/kg orally 1 hour later, positive control): 98.5 ± 10.6 s

C[C@@H]1O[C@@H](O[C@H]2[C@H](O[C@H]3CC[C@@]4(C)[C@@H](CC[C@]5(C)[C@@H]4CC=C4[C@@H]6CC(C)(C)CC[C@]6(C(=O)O[C@@H]6O[C@H](CO[C@@H]7O[C@H](CO)[C@@H](O[C@@H]8O[C@@H](C)[C@H](O)[C@@H](O)[C@H]8O)[C@H](O)[C@H]7O)[C@@H](O)[C@H](O)[C@H]6O)CC[C@]45C)[C@]3(C)CO)OC[C@H](O)[C@@H]2O)[C@H](O)[C@H](O)[C@H]1O [Kalopanaxsaponin B, 3-O-α-L-Rhamnopyranosyl(1→2)-α-L-arabinopyranosylhederagenin-28-O-α-L-rhamnopyranosyl(1→4)-β-D-glucopyranosyl(1→6)-β-D-glucopyranosyl ester]
Retention time [2]: 170.5 ± 24.6 s
